A short description of data set [1]: Proteolytic stability assessed as trypsin (unknown origin)-mediated compound hydrolysis at compound to trypsin ratio of 0.5 to […] measured after 24 hrs by RP-HPLC method. Format: ADME. As to conditions: human.
In data set [2] the test system is Candida albicans. Briefly: Antifungal activity against Candida albicans ATCC 90028 after 18 to 24 hrs by Alamar blue assay. Format: functional. (In general: Alamar Blue is a resazurin reagent that responds to reducing activity.)
Data set [3] relates to Cryptococcus neoformans. Briefly: Induction of cell lysis in Cryptococcus neoformans ATCC 90113 biofilm assessed as formation of holes at MIC after 1 hr by osmium tetroxide staining based scanning electron microscopic method. Format: functional.
Data set [4] has as its system Cryptococcus neoformans. Briefly: Induction of cell lysis in Cryptococcus neoformans ATCC 90113 biofilm assessed as cytoplasm leakage at MIC after 1 hr by photungstic acid/ammonium molybdate/uranyl acetatebased scanning based transmission electron microscopic method. Format: functional.
For data set [5], the system named is Lipid bilayer. Briefly: Binding affinity to EYPC/EYPG small unilamellar vesicles at 0.1 uM by tryptophan fluorescence quenching assay.
Data set [6] deals with Mycobacterium intracellulare. Put plainly: Anti-bacterial activity against Mycobacterium intracellulare ATCC 23068 after 68 to 72 hrs by Alamar blue assay. Format: functional, cell-based.
In a further data set the test system is Pseudomonas aeruginosa. Briefly: Anti-bacterial activity against Pseudomonas aeruginosa ATCC 27853 by CLSI method. Format: functional.
The subject of data set [7] is Pichia kudriavzevii. Briefly: Fungicidal activity against Candida krusei ATCC 6258 after 18 to 24 hrs by Alamar blue assay. Format: functional.
The next data set concerns Nakaseomyces glabratus. Put plainly: Antifungal activity against Candida glabrata ATCC 90030 after 18 to 24 hrs by Alamar blue assay. Format: functional.
The test system of data set [8] is Cryptococcus neoformans. Briefly: Antifungal activity against Cryptococcus neoformans ATCC 90113 after 68 to 72 hrs by Alamar blue assay. Format: functional.
In the next data set the test system is Aspergillus fumigatus. Put plainly: Antifungal activity against Aspergillus fumigatus ATCC 90906 after 68 to 72 hrs by Alamar blue assay. Format: functional.
For another data set, the system named is Vero. Put plainly: Cytotoxicity against African green monkey Vero cells up to 10 ug/ml after 48 hrs by neutral red dye based assay. Format: cell-based. The note with it: chlorocebus sabaeus.
Data set [9] concerns Lipid bilayer. Put plainly: Binding affinity to EYPC/cholesterol small unilamellar vesicles at 0.1 uM by tryptophan fluorescence quenching assay. Format: ADME.
Data set [10] in a line: Selectivity index ratio of cytotoxic concentration against African green monkey Vero cells to IC50 for Cryptococcus neoformans ATCC 90113. Format: toxicity. The note with it: read-out: Selectivity Index.
Data set [11] relates to Candida albicans. Briefly: Antifungal activity against Candida albicans by broth microdilution method. Format: functional. Background: Dilution methods test growth across graded concentrations, often in twofold steps.
Data set [12] has as its system Lipid bilayer. Briefly: Disruption of EYPC/EYPG small unilamellar vesicles assessed as disfigured liposomes at 0.5 ug/ml by phosphotungstic acid staining based transmission electron microscopic method.
Data set [13] relates to Lipid bilayer. Put plainly: Disruption of EYPC/cholesterol small unilamellar vesicles at 0.5 ug/ml by phosphotungstic acid staining based transmission electron microscopic method. Format: ADME.
Data set [14] relates to Staphylococcus aureus. Briefly: Anti-bacterial activity against methicillin-resistant Staphylococcus aureus ATCC 33591 by CLSI method. Format: functional. The note with it: Staphylococcus aureus, ATCC 33591; read-out: IC50.
The subject of data set [15] is Escherichia coli. Put plainly: Anti-bacterial activity against Escherichia coli ATCC 35218 by CLSI method. Format: functional. As to conditions: Escherichia coli, ATCC 35218; for IC50: read-out: IC50.
Data set [16] deals with Cryptococcus neoformans. Put plainly: Induction of cell lysis in Cryptococcus neoformans ATCC 90113 biofilm assessed as formation of pits at MIC after 1 hr by photungstic acid/ammonium molybdate/uranyl acetatebased scanning based transmission electron microscopic method. Format: functional.
For data set [17], the system named is Escherichia coli. Briefly: Bactericidal activity against Escherichia coli ATCC 35218 by CLSI method. Format: functional.
For data set [18], the system named is Cryptococcus neoformans. Briefly: Fungicidal activity against Cryptococcus neoformans ATCC 90113 after 68 to 72 hrs by Alamar blue assay. Format: functional.
Data set [19] has as its system Staphylococcus aureus. Put plainly: Anti-bacterial activity against Staphylococcus aureus ATCC 29213 by CLSI method. As to conditions: Staphylococcus aureus, ATCC 29213; read-out: IC50. Format: functional.
Data set [20] concerns Lipid bilayer. Put plainly: Disruption of EYPC/EYPG small unilamellar vesicles assessed as lysed liposomes at 0.5 ug/ml by phosphotungstic acid staining based transmission electron microscopic method.
In data set [21] the test system is Pichia kudriavzevii. Put plainly: Antifungal activity against Candida krusei ATCC 6258 after 18 to 24 hrs by Alamar blue assay. Format: functional.
Data set [22] has as its system Cryptococcus neoformans. Briefly: Induction of cell lysis in Cryptococcus neoformans ATCC 90113 biofilm assessed as cell perturbation at MIC after 1 hr by osmium tetroxide staining based scanning electron microscopic method. Format: functional.
Data set [23] deals with Cryptococcus neoformans. Put plainly: Induction of cell lysis in Cryptococcus neoformans ATCC 90113 biofilm assessed as corrugated cells at MIC after 1 hr by osmium tetroxide staining based scanning electron microscopic method. Format: functional.
For data set [24], the system named is Cryptococcus neoformans. Briefly: Induction of cell lysis in Cryptococcus neoformans ATCC 90113 biofilm assessed as loss of cell wall at MIC after 1 hr by photungstic acid/ammonium molybdate/uranyl acetatebased scanning based transmission electron microscopic method. Format: functional.

The text below walks through data of ChEMBL document CHEMBL4024712, “Synthesis, stability and mechanistic studies of potent anticryptococcal hexapeptides” (Eur J Med Chem, 2017).

pIC50: −log10 of the molar value. Converted amounts (≈) assume the structure as drawn. The source made the active and inactive calls. Non-standard residues stand in square brackets, D forms with d. Residues, ends and D or L forms follow the SMILES beside them. His(τ-Bzl) = N[C@@H](Cc1cn(Cc2ccccc2)cn1)C(=O)O; Phe(4-NH2) = Nc1ccc(C[C@H](N)C(=O)O)cc1; Phe(4-Me) = Cc1ccc(C[C@H](N)C(=O)O)cc1; Cha = N[C@@H](CC1CCCCC1)C(=O)O; Orn = NCCC[C@H](N)C(=O)O

The term IC50 denotes the concentration that inhibits the measured activity by half. By MFC is commonly meant the smallest concentration meeting the test's criterion for killing the fungus. The term MIC denotes the least concentration at which growth counts as inhibited. Turning to `CC[C@H](C)[C@H](NC(=O)[C@H](CC1CCCCC1)NC(=O)[C@H](Cc1c[nH]c2ccccc12)NC(=O)[C@@H](N)CCCN)C(=O)N[C@H](Cc1ccccc1)C(=O)N[C@@H](Cc1cn(Cc2ccccc2)cn1)C(N)=O` (H-[Orn]W[Cha]I[dF][His(τ-Bzl)]-NH2), the Stability entry in [1] was “Stable”. Also, the IC50 entry (with Candida albicans [2]; in [6]; in the data set with Pseudomonas aeruginosa; in the data set with Nakaseomyces glabratus; with Aspergillus fumigatus) was “Not Active” in each case. In addition, the result in the data set on Cryptococcus neoformans [3], in the data set on Cryptococcus neoformans [4] and in the data set on Lipid bilayer [5] was Active. Besides, the MFC against Pichia kudriavzevii [7] amounted to 10 mg/L (≈ 10.4 µM). The same compound came in with an MIC with Cryptococcus neoformans [8] of 0.63 mg/L (≈ 0.657 µM). Further, the Activity entry with Vero and in the data set with Lipid bilayer [9] was “Non-Toxic” each time. In addition, the selectivity ratio in data set [10] lay within 21 to 25.
As a reminder, the pIC50 is −log10 of the IC50, conventionally taken in molar units. For `NCCCC[C@H](NC(=O)[C@@H](Cc1ccccc1)NC(=O)[C@H](Cc1ccccc1)NC(=O)[C@@H](Cc1ccccc1)NC(=O)[C@@H](Cc1c[nH]c2ccccc12)NC(=O)[C@@H](N)Cc1c[nH]cn1)C(N)=O` (H-H[dW][dF]F[dF]K-NH2), the pIC50 in the data set on Candida albicans [11] is 5.17.
For orientation: MBC means the smallest concentration meeting the test's criterion for killing. On to `Cc1ccc(C[C@H](NC(=O)[C@@H](Cc2ccccc2)NC(=O)[C@@H](Cc2c[nH]c3ccccc23)NC(=O)[C@@H](N)CCCN)C(=O)N[C@H](Cc2ccccc2)C(=O)N[C@H](CCCCN)C(N)=O)cc1` (H-[Orn][dW][dF][Phe(4-Me)][dF][dK]-NH2), for which the result in the data set with Lipid bilayer [12], in the data set with Cryptococcus neoformans [3], with Lipid bilayer [5], in the data set with Cryptococcus neoformans [16] and with Lipid bilayer [20] was Active. Besides, the Stability entry in [1] was “Stable”. The Activity entry in the data set with Lipid bilayer [13], with Vero and in the data set with Lipid bilayer [9] was “Non-Toxic” in each case. For the same compound, the IC50 result in the data set with Candida albicans [2] was “Not Active”; in the data set on Staphylococcus aureus [14], over 20 mg/L; in the data set on Escherichia coli [15] it was 8.2 mg/L (≈ 9.1 µM); in [6], “Not Active”; in the data set on Pseudomonas aeruginosa (Pseudomonas aeruginosa, ATCC 27853, read-out: IC50), 20 mg/L (≈ 22.2 µM); with Nakaseomyces glabratus, “Not Active”. Besides, the IC50 is 0.4 mg/L (≈ 0.444 µM) in the data set on Cryptococcus neoformans [8]; “Not Active” in the data set on Aspergillus fumigatus; over 20 mg/L with Staphylococcus aureus [19]; 12.1 mg/L (≈ 13.4 µM) with Pichia kudriavzevii [21] (Pichia kudriavzevii, ATCC 6258, read-out: IC50). Further, the MIC came out at 20 mg/L (≈ 22.2 µM) against Escherichia coli [15]; 0.63 mg/L (≈ 0.699 µM) against Cryptococcus neoformans [8]; 20 mg/L (≈ 22.2 µM) against Pichia kudriavzevii [21] (Pichia kudriavzevii, ATCC 6258). In addition, the MFC against Pichia kudriavzevii [7] was found to be 20 mg/L (≈ 22.2 µM); in the data set with Cryptococcus neoformans [18], 0.63 mg/L (≈ 0.699 µM). In the data set on Escherichia coli [17], this compound gave an MBC of 20 mg/L (≈ 22.2 µM). Moreover, the selectivity ratio in data set [10] lay in the range of 21 to 25.
With `Cc1ccc(C[C@H](NC(=O)[C@@H](Cc2ccccc2)NC(=O)[C@@H](Cc2c[nH]c3ccccc23)NC(=O)[C@@H](N)CCCN)C(=O)N[C@H](Cc2ccccc2)C(=O)N[C@@H](Cc2ccc(N)cc2)C(N)=O)cc1` (H-[Orn][dW][dF][Phe(4-Me)][dF][Phe(4-NH2)]-NH2), the result in the data set with Cryptococcus neoformans [22], in the data set with Cryptococcus neoformans [23], with Lipid bilayer [5] and in the data set on Cryptococcus neoformans [24] was Active. For the same compound, the IC50 result was “Not Active” in the data set with Candida albicans [2]; over 20 mg/L in the data set on Staphylococcus aureus [14]; 19.5 mg/L (≈ 20.9 µM) in the data set on Escherichia coli [15]; “Not Active” in data set [6]; “Not Active” with Pseudomonas aeruginosa; “Not Active” in the data set on Nakaseomyces glabratus. The IC50 in the data set on Cryptococcus neoformans [8] was 4.73 mg/L (≈ 5.06 µM); with Aspergillus fumigatus, “Not Active”; in the data set on Staphylococcus aureus [19], over 20 mg/L; in the data set on Pichia kudriavzevii [21] it was “Not Active”. In the data set with Cryptococcus neoformans [8], the MIC was found to be 5 mg/L (≈ 5.35 µM). Further, the Activity result in the data set with Vero and in the data set with Lipid bilayer [9] was “Non-Toxic” each time. The same compound showed an MFC with Cryptococcus neoformans [18] of 5 mg/L (≈ 5.35 µM).
